Test results published in patent publication US20120208851A1, “FORMULATIONS” (NEUROSYSTEC CORPORATION, priority 2008, published 2012).

Legend:
[1] = Binding of gacyclidine by PLGA nanoparticles (gacyclidine in suspension by HPLC); format: physicochemical
Source text: Water (pH 7.2) was mixed with acetone solutions containing 2 grams/liter 5050 DLG 3E (PLGA, Lakeshore Biomaterials, solution A) or a solution of 2 grams/liter 5050 DLG 3E and 2 grams/liter gacyclidine base (solution B) or a solution of 2 grams/liter gacyclidine base (solution C). Rapid mixing was accomplished by pumping water into a T-mixer at 5 milliliters/minute and solution A, B, or C into the same T-mixer at 1 milliliter/minute.
Acetone was eliminated from the suspension of particles prepared by mixing water with solution B by stirring the suspension in an open beaker for three days. The particle suspension was then passed through a 0.2 micrometer polyethersulfone syringe filter (VWR International) to eliminate larger particles. […] These nanoparticles were then concentrated by pressure dialysis with a 10,000 MWCO cellulose membrane (Amicon) to a final volume of 17 milliliters. The average particle diameter in the concentrated suspension was determined to be 53 nanometers by dynamic light scattering.
To determine the gacyclidine concentration in the nanoparticle suspension, an aliquot (20 to 50 microliters) was diluted with 10 millimolar hydrochloric acid to a final volume of 1.8 milliliter and then analyzed by high-performance liquid chromatography. Gacyclidine in the concentrated suspension was determined to be 0.68 millimolar (0.18 grams/liter; 3.1 milligrams gacyclidine base; 8% of the initial gacyclidine). When this suspension was passed through a 0.2 micrometer polyethersulfone syringe filter (VWR International) it further reduced the concentration of gacyclidine to 0.23 millimolar (0.06 grams/liter; 1.0 milligrams gacyclidine base; 2.5% of the initial gacyclidine). […] After filtration of the pH 9.1 nanoparticle suspension through a 0.2 micrometer polyethersulfone syringe filter (VWR International) the concentration of particles was not reduced, based on light scattering intensity, nor was the average diameter of particles (58 nanometers, post-filtration) substantially altered. However, the concentration of gacyclidine present in the nanoparticle suspension, after adjusting the pH to 9.1 and passage through a 0.2 micrometer filter, was reduced to approximately 0.02 millimolar (0.005 grams/liter; 0.09 milligrams gacyclidine base; 0.2% of the initial gacyclidine). […] Very little of the gacyclidine in the initial nanoparticle preparation was bound to the PLGA nanoparticles, but was instead dissolved in the aqueous phase surrounding the particles.

[2] = Solubility of gacyclidine base in squalene; format: physicochemical
Experimental: Squalene was added to 1 gram of gacyclidine free base in 1 milliliter aliquots until the gacyclidine base went into solution. The minimum amount of squalene required to dissolve 1 gram of gacyclidine base was 9 milliliters. A suspension of gacyclidine-containing squalene was prepared by adding 4.3 milliliters of the gacyclidine solution in squalene (1 gram gacyclidine base dissolved in 9 milliliters squalene), 0.5 milliliters of polysorbate 80, 0.5 milliliters of sorbitan trioleate, 35 milligrams of dipotassium phosphate, 1 milligram of citric acid, and 877 milligrams of sodium chloride to a graduated cylinder and bringing the mixture to a final volume of 100 milliliters with water. The suspension of squalene-gacyclidine in phosphate buffered saline was passed through a Microfluidics M-110S high pressure homogenizer equipped with a G10Z 87 micrometer ceramic interaction chamber at 23,000 pounds per square inch. After 7 passes through the homogenizer with the interaction chamber maintained in an ice bath, the average particle diameter of the squalene-gacyclidine emulsion was determined to be 135 nanometers by use of a Horiba LB-550 dynamic light scattering particle size analyzer. After 7 additional passes of the emulsion through the homogenizer with the interaction chamber maintained in an ice bath, the average particle diameter was determined to be 122 nanometers. After 7 additional passes of the emulsion through the homogenizer with the interaction chamber maintained in an ice bath, the average particle diameter was determined to be 114 nanometers. After 7 additional passes of the emulsion through the homogenizer with the interaction chamber maintained in an ice bath, the average particle diameter was determined to be 112 nanometers. Extensive analysis of the squalene-gacyclidine emulsion determined that the average particle diameter was between 107 to 123 nanometers. The pH and osmolality of the squalene-gacyclidine emulsion were determined to be 7.6 and 279 milliosmolal, respectively.

[3] = concentrated PLGA suspension passed through 0.2 micrometer polyethersulfone syringe filter
[4] = pH 9.1, passage through 0.2 micrometer filter

| Compound | % of the initial gacyclidine in the concentrated suspension ([1]; PLGA+gacyclidine nanoparticles after 0.2 micrometer filtration and pressure dialysis concentration) | Gacyclidine in the concentrated suspension ([1]; PLGA+gacyclidine nanoparticles after 0.2 micrometer filtration and pressure dialysis concentration, HPLC) | affinity for PLGA ([1]; based on final amount of gacyclidine remaining associated with PLGA nanoparticles) | % of the initial gacyclidine after passing concentrated suspension through 0.2 micrometer filter [1, 3] | concentration of gacyclidine after passing concentrated suspension through 0.2 micrometer filter [1, 3] | % of the initial gacyclidine after adjusting pH to 9.1 and filtration [1, 4] | concentration of gacyclidine in the nanoparticle suspension after adjusting pH to 9.1 and filtration [1, 4] | limit of solubility in the squalene phase [2] | minimum amount of squalene required to dissolve 1 gram of gacyclidine base ([2]; squalene added in 1 milliliter aliquots) |
| --- | --- | --- | --- | --- | --- | --- | --- | --- | --- |
| CC1CCCCC1(c1cccs1)N1CCCCC1 (stereo not shown) [gacyclidine] | 8% | 0.68 millimolar | does not have a high affinity for PLGA | 2.5% | 0.23 millimolar | 0.2% | approximately 0.02 millimolar | 1 gram of gacyclidine for every 9 milliliters of squalene | 9 milliliters |
| CNC1(c2ccccc2Cl)CCCCC1=O (stereo not shown) [ketamine] |  |  |  |  |  |  |  | similar |  |
